The CATMoS acute toxicity set (Mansouri et al. 2021)

Assay: GHS categories as the set defines them, by LD50: 1 up to 5, 2 up to 50, 3 up to 300, 4 up to 2000, 5 above 2000 mg/kg
Conditions: rat; in vivo; po

| SMILES | GHS category |
| --- | --- |
| COC(=O)c1ccc(C(F)(F)F)nc1S(=O)(=O)NC(=O)Nc1nc(OC)cc(OC)n1 | 5 |
| COC(=O)[C@H]1CCCO1 | 5 |
| CCSC | 5 |
| O=COC1CCC2CCCCC2C1 (configuration not stated) | 5 |
| CCCNC(=O)c1cnc2ccc(C)cn2c1=O | 3 |
| CCCCCCCCOCCCCCCCC | 5 |
| COP(=O)(NC(=O)C(Cl)Cl)SC (configuration not stated) | 4 |
| COc1ccccc1NC(=O)c1cc2ccccc2c(N=Nc2ccc(C(N)=O)cc2)c1O | 5 |
| COC(=O)Cc1c(C(=O)OC)sc(N)c1C#N | 5 |
| CC(C)OC[C@H]1CO[C@@](Cn2cncn2)(c2cc3cc(Cl)cc(Cl)c3o2)O1 | 4 |
| CCCCC(CC)COCC(O)COc1ccc(-c2nc(-c3ccc(C)cc3C)nc(-c3ccc(C)cc3C)n2)c(O)c1 (configuration not stated) | 5 |
| CCCC(=O)c1ccc2[nH]c(=O)oc2c1 | 5 |
| OCC(CO)(CO)COCC(CO)(CO)CO | 5 |
| CCCCCCCCCCCCCCCCCCCCCC(=O)Nc1ccn([C@@H]2O[C@H](CO)[C@@H](O)[C@@H]2O)c(=O)n1 | 4 |
| C/C(=C(\CCOC(=O)C(C)C)SS/C(CCOC(=O)C(C)C)=C(/C)N(C=O)Cc1cnc(C)nc1N)N(C=O)Cc1cnc(C)nc1N | 5 |
| CCCCCCCOCCCCN1CCCCCC1=O | 5 |
| Nc1ccc(NCCO)c([N+](=O)[O-])c1 | 4 |
| OC1C(Cl)(Cl)C(=C(Cl)Cl)C(O)(C(Cl)Cl)C1(Cl)Cl (configuration not stated) | 4 |
| COc1cc(NS(=O)(=O)c2ccccc2)c2c(c1N)C(=O)c1ccccc1C2=O | 5 |
| CC(C)(N=C(O)C(Br)C(C)(C)C)c1ccccc1 (configuration not stated) | 5 |
| CCCCCCOC(=O)CCCCC(=O)OCCCCCC | 5 |
| Cc1ccn2nc(S(=O)(=O)Nc3c(F)cccc3F)nc2n1 | 5 |

| SMILES | GHS category |
| --- | --- |
| CCCCCCCOC(C)=O | 5 |
| Cn1ccnc1Cc1nn[nH]n1 | 5 |
| COC(Cn1cncn1)(OC)c1cc2ccccc2o1 | 4 |
| CN1C(=O)COc2cc(C(=O)C=Cc3ccc(O)cc3)ccc21 | 5 |
| CCCCCCCCC(=O)NO | 5 |
| NNC(=O)CCCCC(=O)NN | 5 |
| NCCCC[C@H](N[C@@H](CCc1ccccc1)C(=O)O)C(=O)N1CCC[C@H]1C(=O)O | 5 |
| CC(C)CCCCCCCCCCCCCCCO | 5 |
| CC(C)=CCN(CC=C(C)C)CCC(C#N)(c1ccc2ccccc2c1)C(C)C (configuration not stated) | 4 |
| CCC(=O)OC(OC(C(=O)O)[P+](=O)CCCCc1ccccc1)C(C)C (configuration not stated) | 5 |
| COc1ccccc1C1C(Cl)C(=O)N1NC(=O)c1ccccc1O (configuration not stated) | 5 |
| O=P(OCC(CBr)(CBr)CBr)(OCC(CBr)(CBr)CBr)OCC(CBr)(CBr)CBr | 5 |
| C=C(C)C(=O)O[Si](C(C)C)(C(C)C)C(C)C | 5 |
| CN1CC(c2ccn[nH]2)CC2c3cccc4[nH]cc(c34)CC21 (configuration not stated) | 4 |
| CCCCCCC(C)(C)c1cc(O)c2c(c1)OC(C)(C)[C@@H]1CCC(=O)C[C@@H]21 | 4 |
| C[N+](C)(C)NCCC(=O)[O-] | 5 |
| CC12CCC3c4ccc(OC(=O)c5ccccc5)cc4CCC3C1CCC2OC(=O)COC(=O)CCCc1ccc(N(CCCl)CCCl)cc1 (configuration not stated) | 5 |
| CCCc1c(Cc2ccc(-c3ccccc3-c3nn[nH]n3)cc2)c(N2CCCC2)nc2ncnn12 | 4 |
| O=C(O)CCn1nc2ccccn2c1=O | 5 |
| FC(F)(F)c1cccc(C(c2ccccc2)(c2ccccc2)n2cncn2)c1 | 5 |
| CCCc1c(Cc2ccc(-c3ccccc3C(N)=O)cc2)c(=O)nc2[nH]ncn12 | 4 |
| CC(C)COC(=O)CC(C)C | 5 |

| SMILES | GHS category |
| --- | --- |
| C=C(C)c1cccc(C(=C)C)c1 | 5 |
| CCC=CCCOC(=O)C(C)C | 5 |
| C=CC(C)CCC=C(C)C (configuration not stated) | 5 |
| C=CC=CC=CC=CC=CC=CC=CC | 5 |
| Brc1cnc2[nH]ccc2c1 | 5 |
| Cc1nn(-c2ccc3cc(-c4ccccc4)c(=O)oc3c2)nc1-c1ccccc1 | 5 |
| NC(=O)c1ccc(NC(=O)c2ccc([N+](=O)[O-])cc2)cc1 | 5 |
| O=C(O)CCC(=O)OC1N=C(c2ccccc2)c2cc(Cl)ccc2NC1=O (configuration not stated) | 5 |
| CCOP(=S)(Oc1cnc(C(C)(C)C)nc1)OC(C)C (configuration not stated) | 1 |
| Nc1ccc([N+](=O)[O-])cc1O | 5 |
| CCCOc1ccc(Cl)c2c(=O)c3ccccc3sc12 | 5 |
| FC(F)(F)c1cccc(-n2nc(OCCN3CCCCCC3)c3cccnc32)c1 | 4 |
| CCOCCC(C)CCC=C(C)C (configuration not stated) | 5 |
| CCCC(=O)C(C)=O | 5 |
| CCN(Cc1cccc(S(=O)(=O)O)c1)c1ccc(C(=C2C=CC(=[N+](CC)Cc3cccc(S(=O)(=O)[O-])c3)C=C2)c2ccc(S(=O)(=O)O)cc2)cc1 | 5 |
| NC(=O)[C@@H]1CCCN1C(=O)[C@H](Cc1cnc[nH]1)NC(=O)[C@@H]1CCC(=O)N1 | 5 |
| CC(C)(c1cc(Br)c(OCC(Br)CBr)c(Br)c1)c1cc(Br)c(OCC(Br)CBr)c(Br)c1 (configuration not stated) | 5 |
| C=CC(=O)Oc1c(Br)cc(Cl)c2cccnc12 | 5 |
| c1ccc(CSCc2ccccc2)cc1 | 5 |
| CC(C)(C)C1=CC(=Cc2ccccc2)C=C(C(C)(C)C)C1=O | 5 |
| CC(C)S | 5 |
| CC(=CCc1c(O)c(Cl)c(C)c(C=O)c1O)CCC=C(C)[C@@H]1CC(=O)C(C)(C)O1 | 5 |

| SMILES | GHS category |
| --- | --- |
| c1ccc(OCC2COC(Cn3cncn3)(c3cc4ccccc4o3)O2)cc1 (configuration not stated) | 4 |
| CC(=O)SC[C@@H](C)C(=O)N1CCC[C@H]1C(=O)N[C@@H](Cc1ccccc1)C(=O)O | 5 |
| Cc1ccc(I)cc1Cc1ccc(-c2ccc(F)cc2)s1 | 5 |
| CC(C)c1ccccc1OP(=O)(Oc1ccccc1C(C)C)Oc1ccccc1C(C)C | 5 |
| O=C(O)CC(=O)C(=O)O | 5 |
| Oc1ccc(-c2ccccc2)cc1 | 5 |
| OCC(O)COc1nn(Cc2ccccc2)c2ccccc12 (configuration not stated) | 5 |
| c1ccc(OCCOc2ccccc2)cc1 | 5 |
| Cc1ccc(C2OC[C@@H]3OC(c4ccc(C)c(C)c4)O[C@H]([C@H](O)CO)[C@@H]3O2)cc1C (some centres not stated) | 5 |
| CCN(C(=O)CCCSc1nnnn1C)c1ccccn1 | 4 |
| Cc1cccc2ncc(C(=O)Nc3ccccc3)c(=O)n12 | 3 |
| CCOP(=S)(OCC)ON=C(C#N)c1ccccc1Cl | 5 |
| C#CCOc1cc(-n2nc3n(c2=O)CCCC3)c(Cl)cc1Cl | 5 |
| CC(C)CCCC(C)C1CCC2C3CCC4CC(OP(=O)(O)O)CCC4(C)C3CCC12C (configuration not stated) | 5 |
| CN(C/C=C/C#CC(C)(C)C)Cc1cccc2ccccc12 | 5 |
| CNC(=O)c1cc(C(O)CNC(C)(C)CCN2C(=O)OC(C)(C)c3ccccc32)ccc1O (configuration not stated) | 4 |
| Nc1nc2c(ncn2COCCO)c(=O)[nH]1 | 5 |
| CC(C)=CCC(C#N)(CCN1CCCC1)c1cccc2ccccc12 (configuration not stated) | 4 |
| CCOC(=O)C1N=C(c2ccccc2F)c2cc(Cl)ccc2NC1=O (configuration not stated) | 5 |
| CSC(C)(C)SC | 5 |
| CCOP(=O)(OCC)c1ccccc1 | 4 |
